Assay results as given in patent US20110263539A1, “SHIP 1 MODULATOR COMPOUNDS” (THE UNIVERSITY OF BRITISH COLUMBIA, priority 2006, published 2011).

Tests used:
[1] = test system: luciferase expressing OPM2 cells; assay: In vivo Multiple Myeloma (MM) assay (Assay 8); parameters: species or system Mice; details: 50 mg/kg every 3 days, subcutaneous oil depot
Protocol: Assay 8) In vivo Multiple Myeloma (MM) assay. Mice were inoculated with at two sites each with 3×10^6 luciferase expressing OPM2 cells suspended in 50 μL of growth medium and 50 μL of Matrigel basement membrane matrix (Becton Dickenson; Bedford, Mass.). Tumors were injected subcutaneously in the upper and lower flanks of the mice and allowed to establish for 2 weeks. After 2 weeks, a test compound or control vehicle was administered in a subcutaneous oil depot at a dose of 50 mg/kg every 3 days.
Tumors were measured using bioluminescence imaging on the Xenogen IVIS 200. Mice received intra-peritoneal injections of 200 μL of D-luciferin at 3.75 mg/mL in sterile PBS. Mice were then anesthetized with isofluorane and imaged 15 minutes post-injection of luciferin. Quantification of tumor size was performed using the Living Image™ software.
MM Xenograft murine model. Mice were inoculated with at two sites each with 3×10^6 luciferase expressing OPM2 cells suspended in 50 μL of growth medium and 50 μL of Matrigel basement membrane matrix (Becton Dickenson; Bedford, Mass.). Tumors were injected subcutaneously in the upper and lower flanks of the mice and allowed to establish for 2 weeks. […]
Tumors were measured using bioluminescence imaging on the Xenogen IVIS 200. […] Quantification of tumor size was performed using the Living Image™ software. […]

plasma TNFα = assay: Mouse endotoxemia model (Assay 6); type: in vivo, C57B16 mice; details: oral administration 30 min prior to LPS, 2 hrs
Protocol: Assay 6) Mouse endotoxemia model. 6-8 week old C57B16 mice (VCHRI Mammalian Model of Human Disease Core Facility, Vancouver, BC) were orally administered the test compound 30 min prior to an IP injection of 2 mg/kg of LPS (E. Coli serotype 0111:B4, Sigma, Oakville, Ont). Blood was drawn 2 hrs later for determination of plasma TNFα by ELISA.
Mouse endotoxemia model. 6-8 week old C57B16 mice (VCHRI Mammalian Model of Human Disease Core Facility, Vancouver, BC) were orally administered the indicated dose of AQX-016A, Compound 100 or dexamethasone or carrier 30 min prior to an IP injection of 2 mg/kg of LPS (E. Coli serotype 0111:B4, Sigma, Oakville, Ont). Blood was drawn 2 hrs later for determination of plasma TNFα by ELISA. Results are representative of 3 independent experiments. (FIGS. 7D and 9)
AQX-016A's ability to provide protection by inhibiting inflammatory reactions in vivo was assessed in mouse models. The mouse model of endotoxic shock involves intraperitoneal (IP) injection of bacterial LPS and measurement of serum TNFα levels 2 hrs later. We orally administered AQX-016A or the steroidal drug dexamethasone to mice 30 min prior to the LPS challenge.

[2] = test system: neutrophil myeloperoxidase (MPO) activity; assay: Mouse acute cutaneous anaphylaxis model (Assay 5); type: in vivo, CD1 mice
Protocol: Assay 5) Mouse acute cutaneous anaphylaxis model. 6-8 week old CD1 mice
(§1) (University of British Columbia Animal Facility, Vancouver, BC) were sensitized to the hapten DNP by cutaneous application of 25 μL of 0.5% dinitrofluorobenzene (DNFB) (Sigma, Oakville, Ont) in acetone to the shaved abdomen of mice for two consecutive days. 24 hrs later, test substances (dissolved in 10 μL of 1:2 DMSO:MeOH) were painted on the right ear while the left ear received vehicle control. 30 min after drug application, DNFB was applied to both ears to induce mast cell degranulation. A 6 mm punch was taken from the ear and immediately frozen on dry ice for subsequent determination of neutrophil myeloperoxidase (MPO) activity.
as §1, with “Mouse acute cutaneous anaphylaxis model. 6-8 week old CD1 mice (University” for “(University”, “activity. Compound 100's ability to inhibit cutaneous anaphylaxis was assessed.” for “activity.”
Anaphylactic or allergic responses are mediated by allergen-induced degranulation of pre-sensitized mast cells. The mouse ear edema/cutaneous anaphylaxis model involves pre-sensitization of mice with the haptenizing agent dinitrofluorobenzene (DNFB). One week later the allergic reaction is elicited by painting DNFB onto the ears of the mice. The efficacy of potential anti-inflammatory compounds is tested by topical application of the test substance to one ear and comparing the resulting ear edema or inflammation of the two ears.

J774.1a macrophage cells = assay: Macrophage TNF-α production (Assay 2); type: cell-based; details: 10 μg/mL test compound, 100 ng/mL LPS, ELISA; note: key: a ‘+’ indicates a positive result for desired activity; a ‘−’ indicates a negative result for desired activity
Protocol: Assay 2) Macrophage TNF-α production. J774.1a macrophage cells were treated with 10 μg/mL of test compound dissolved in solvent (e.g. cyclodextran) for 40 minutes prior to the addition of 100 ng/mL LPS. Culture supernatants were collected after 2 hr and 5 hr for TNF-α determination by ELISA.

With `Cc1cc(O)cc2c1[C@]1(C)CCC3C(C)(C)CCC[C@]3(C)[C@H]1C2` (some centres unmarked) [Compound 100] as the compound, how does the “Assay Number 8: In vivo Multiple Myeloma (MM) assay” value [1] read?
The value was “+”.

What about the “LPS-induced plasma/serum TNFα levels” value (plasma TNFα) of the same compound?
Its value is “efficiently inhibited”.

What about the “Assay Number 5: Mouse acute cutaneous anaphylaxis model” value ([2]; topical on ear, DNFB) of the same compound?
The value was “+”.

What about the “allergen (DNFB)-induced inflammation” value ([2]; topically applied vs vehicle control-treated ear) of the same compound?
Its value is “dramatically inhibited”.

And the “Assay Number 2: Macrophage TNF-α production” value (J774.1a macrophage cells)?
The value was “+”.
